row,melting point [°C],SMILES
1,182 to 184,"c1ccc(N2CCN(c3nc(N4CCOCC4)cc(N4CCOCC4)n3)CC2)cc1 [Compound 1, 4,6-dimorpholino-2-(4-phenylpiperazin-1-yl)pyrimidine]"
2,196 to 199,"Fc1ccc(N2CCN(c3nc(N4CCOCC4)cc(N4CCOCC4)n3)CC2)cc1 [Compound 20, 2-[4-(4-fluorophenyl)piperazin-1-yl]-4,6-dimorpholinopyrimidine]"
3,215 to 218,"Fc1ccc(N2CCN(c3cc(N4CCOCC4)nc(N4CCOCC4)n3)CC2)cc1 [Compound 21, 4-[4-(4-fluorophenyl)piperazin-1-yl]-2,6-dimorpholinopyrimidine]"
4,191 to 194,"Cc1ccc(N2CCN(c3nc(N4CCOCC4)cc(N4CCOCC4)n3)CC2)cc1 [Compound 22, 2-[4-(4-methylphenyl)piperazin-1-yl]-4,6-dimorpholinopyrimidine]"
5,198 to 201,"CC(=O)c1ccc(N2CCN(c3cc(N4CCOCC4)nc(N4CCOCC4)n3)CC2)cc1 [Compound 25, 4-[4-(4-acetylphenyl)piperazin-1-yl]-2,6-dimorpholinopyrimidine]"
6,156,"Clc1ccccc1N1CCN(c2nc(N3CCOCC3)cc(N3CCOCC3)n2)CC1 [Compound 26, 2-[4-(2-chlorophenyl)piperazin-1-yl]-4,6-dimorpholinopyrimidine]"
7,184,"CCOc1ccccc1N1CCN(c2nc(N3CCOCC3)cc(N3CCOCC3)n2)CC1 [Compound 27, 2-[4-(2-ethoxyphenyl)piperazin-1-yl]-4,6-dimorpholinopyrimidine]"
8,149,"Cc1ccccc1N1CCN(c2nc(N3CCOCC3)cc(N3CCOCC3)n2)CC1 [Compound 28, 2-[4-(2-methylphenyl)piperazin-1-yl]-4,6-dimorpholino-pyrimidine]"
9,141,"Cc1cccc(N2CCN(c3nc(N4CCOCC4)cc(N4CCOCC4)n3)CC2)c1C [Compound 29, 4,6-dimorpholino-2-[4-(2,3-xylyl)piperazin-1-yl]pyrimidine]"
10,148,"Fc1ccccc1N1CCN(c2nc(N3CCOCC3)cc(N3CCOCC3)n2)CC1 [Compound 31, 2-[4-(2-fluorophenyl)piperazin-1-yl]-4,6-dimorpholinopyrimidine]"
11,214,"COc1ccccc1N1CCN(c2nc(N3CCOCC3)cc(N3CCOCC3)n2)CC1 [Compound 32, 2-[4-(2-methoxyphenyl)piperazin-1-yl]-4,6-dimorpholinopyrimidine]"
12,213,"Clc1ccc(N2CCN(c3nc(N4CCOCC4)cc(N4CCOCC4)n3)CC2)cc1 [Compound 33, 2-[4-(4-chlorophenyl)piperazin-1-yl]-4,6-dimorpholinopyrimidine]"
13,99 to 102,"Cc1c(N2CCOCC2)nc(N2CCN(c3ccccc3)CC2)nc1N1CCOCC1 [Compound 44, 5-methyl-4,6-dimorpholino-2-(4-phenylpiperazin-1-yl)pyrimidine]"
14,149 to 152,"Cc1c(N2CCOCC2)nc(N2CCOCC2)nc1N1CCN(c2ccccc2)CC1 [Compound 45, 5-methyl-2,4-dimorpholino-6-(4-phenylpiperazin-1-yl)pyrimidine]"
15,163 to 165,"c1ccc(-c2c(N3CCOCC3)nc(N3CCN(c4ccccc4)CC3)nc2N2CCOCC2)cc1 [Compound 46, 4,6-dimorpholino-5-phenyl-2-(4-phenylpiperazin-1-yl)pyrimidine]"
16,203 to 206,"c1ccc(-c2c(N3CCOCC3)nc(N3CCOCC3)nc2N2CCN(c3ccccc3)CC2)cc1 [Compound 47, 2,4-dimorpholino-5-phenyl-6-(4-phenylpiperazin-1-yl)pyrimidine]"
17,141 to 144,"c1ccc(Cc2c(N3CCOCC3)nc(N3CCN(c4ccccc4)CC3)nc2N2CCOCC2)cc1 [Compound 48, 5-benzyl-4,6-dimorpholino-2-(4-phenylpiperazin-1-yl)pyrimidine]"
18,162 to 165,"c1ccc(Cc2c(N3CCOCC3)nc(N3CCOCC3)nc2N2CCN(c3ccccc3)CC2)cc1 [Compound 49, 5-benzyl-2,4-dimorpholino-6-(4-phenylpiperazin-1-yl)pyrimidine]"
19,118 to 120,"COc1c(N2CCOCC2)nc(N2CCOCC2)nc1N1CCN(c2ccccc2)CC1 [Compound 50, 5-methoxy-2,4-dimorpholino-6-(4-phenylpiperazin-1-yl)pyrimidine]"
20,229 to 230,"CC(=O)Nc1c(N2CCOCC2)nc(N2CCN(c3ccccc3)CC2)nc1N1CCOCC1 [Compound 77, 5-acetylamino-4,6-dimorpholino-2-(4-phenylpiperazin-1-yl)pyrimidine]"
21,100 to 104,"CCNc1c(N2CCOCC2)nc(N2CCN(c3ccccc3)CC2)nc1N1CCOCC1 [Compound 80, 5-ethylamino-4,6-dimorpholino-2-(4-phenylpiperazin-1-yl)pyrimidine]"
22,108 to 111,"Fc1c(N2CCOCC2)nc(N2CCOCC2)nc1N1CCN(Cc2ccccc2)CC1 [Compound 90, 4-(4-benzylpiperazin-1-yl)-5-fluoro-2,6-dimorpholinopyrimidine]"
23,163 to 165,"Fc1c(N2CCOCC2)nc(N2CCN(c3ncccn3)CC2)nc1N1CCOCC1 [Compound 92, 5-fluoro-4,6-dimorpholino-2-[4-(pyrimidin-2-yl)piperazin-1-yl]pyrimidine]"

# More lines, now with the values behind:
row,SMILES,melting point [°C]
1,"c1ccc2c(c1)CN(c1nc(N3CCOCC3)cc(N3CCOCC3)n1)C2 [Compound 10, 2-(isoindolin-2-yl)-4,6-dimorpholinopyrimidine]",194 to 198
2,"c1cnc(N2CCN(c3nc(N4CCOCC4)cc(N4CCOCC4)n3)CC2)nc1 [Compound 14, 4,6-dimorpholino-2-[4-(pyrimidin-2-yl)piperazin-1-yl]pyrimidine]",212 to 215
3,"c1ccc(C2CN(c3nc(N4CCOCC4)cc(N4CCOCC4)n3)CCN2)cc1 (centres unmarked) [Compound 16, 4,6-dimorpholino-2-(3-phenylpiperazin-1-yl)pyrimidine]",100 to 104
4,"c1ccc(C2CN(c3cc(N4CCOCC4)nc(N4CCOCC4)n3)CCN2)cc1 (centres unmarked) [Compound 17, 2,4-dimorpholino-6-(3-phenylpiperazin-1-yl)pyrimidine]",181 to 185
5,"CC(=O)c1ccc(N2CCN(c3nc(N4CCOCC4)cc(N4CCOCC4)n3)CC2)cc1 [Compound 24, 2-[4-(4-acetylphenyl)piperazin-1-yl]-4,6-dimorpholinopyrimidine]",162 to 166
6,"OC1(c2ccccc2)CCN(c2nc(N3CCOCC3)cc(N3CCOCC3)n2)CC1 [Compound 36, 2-(4-hydroxy-4-phenylpiperidin-1-yl)-4,6-dimorpholinopyrimidine]",157 to 159
7,"OC1(c2ccccc2)CCN(c2cc(N3CCOCC3)nc(N3CCOCC3)n2)CC1 [Compound 37, 4-(4-hydroxy-4-phenylpiperidin-1-yl)-2,6-dimorpholinopyrimidine]",189 to 192
8,"CC(=O)C1(c2ccccc2)CCN(c2nc(N3CCOCC3)cc(N3CCOCC3)n2)CC1 [Compound 38, 2-(4-acetyl-4-phenylpiperidin-1-yl)-4,6-dimorpholinopyrimidine]",115 to 118
9,"CC(=O)C1(c2ccccc2)CCN(c2cc(N3CCOCC3)nc(N3CCOCC3)n2)CC1 [Compound 39, 4-(4-acetyl-4-phenylpiperidin-1-yl)-2,6-dimorpholinopyrimidine]",146 to 147
10,"C1=C(c2ccccc2)CCN(c2nc(N3CCOCC3)cc(N3CCOCC3)n2)C1 [Compound 40, 4,6-dimorpholino-2-[4-phenyl (1,2,5,6-tetrahydropyridin-1-yl)]pyrimidine]",157 to 160
11,"C1=C(c2ccccc2)CCN(c2cc(N3CCOCC3)nc(N3CCOCC3)n2)C1 [Compound 41, 2,4-dimorpholino-6-[4-phenyl (1,2,5,6-tetrahydropyridin-1-yl)]pyrimidine]",165 to 168
12,"c1c(N2CCOCC2)nc(N2CCN(C3CCCCC3)CC2)nc1N1CCOCC1 [Compound 42, 2-[4-(4-cyclohexyl)piperazin-1-yl]-4,6-dimorpholinopyrimidine]",171 to 174
13,"c1c(N2CCOCC2)nc(N2CCOCC2)nc1N1CCN(C2CCCCC2)CC1 [Compound 43, 4-[4-(4-cyclohexyl)piperazin-1-yl]-2,6-dimorpholinopyrimidine]",144 to 147
14,"O=CN1CCN(c2cc(N3CCOCC3)nc(N3CCN(c4ccccc4)CC3)n2)CC1 [Compound 53, 4-(4-formylpiperazin-1-yl)-6-morpholino-2-(4-phenylpiperazin-1-yl)pyrimidine]",171 to 172
15,"CC(=O)N1CCN(c2cc(N3CCOCC3)nc(N3CCN(c4ccccc4)CC3)n2)CC1 [Compound 54, 4-(4-acetylpiperazin-1-yl)-6-morpholino-2-(4-phenylpiperazin-1-yl)pyrimidine]",171 to 172
16,"CCCCN(CCCC)c1cc(N2CCOCC2)nc(N2CCN(c3ccccc3)CC2)n1 [Compound 55, 6-dibutylamino-4-morpholino-2-(4-phenylpiperazin-1-yl)pyrimidine]",84 to 85
17,"Fc1ccccc1N1CCN(c2cc(N3CCOCC3)nc(N3CCN(c4ccccc4)CC3)n2)CC1 [Compound 58, 4-[4-(2-fluorophenyl)piperazin-1-yl]-6-morpholino-2-(4-phenylpiperazin-1-yl)pyrimidine]",90 to 91
18,"Fc1ccccc1N1CCN(c2cc(N3CCOCC3)nc(N3CCN(c4ccccc4F)CC3)n2)CC1 [Compound 59, 2,4-bis[4-(2-fluorophenyl)piperazin-1-yl]-6-morpholinopyrimidine]",98 to 99
19,"Cc1ccccc1N1CCN(c2cc(N3CCOCC3)nc(N3CCN(c4ccccc4F)CC3)n2)CC1 [Compound 60, 2-[4-(2-fluorophenyl)piperazin-1-yl]-4-[4-(2-methylphenyl)piperazin-1-yl]-6-morpholinopyrimidine]",98 to 99
20,"Cc1ccccc1N1CCN(c2cc(N3CCOCC3)nc(N3CCN(c4ccccc4C)CC3)n2)CC1 [Compound 62, 2,4-bis[4-(2-methylphenyl)piperazin-1-yl]-6-morpholinopyrimidine]",98 to 99
21,"COc1ccc(/C=C/c2nc(N3CCOCC3)c(NC(C)=O)c(N3CCOCC3)n2)cc1 [Compound 79, 5-acetylamino-2-[2-(4-methoxyphenyl)vinyl]-4,6-dimorpholinopyrimidine]",189 to 191
